Test results as given in patent US20230263742A1, “A LIPID” (Stemirna Therapeutics Co., Ltd., priority 2021, published 2023).

What was measured:
[1] = tested on: HepG2 cells; assay: In vitro cell Luc expression, HepG2; assay type: cell-based; settings: 100 ng Luc mRNA-LNP, 24 h
Method: In vitro cell expression evaluation method: C2C12 cells, HepG2 cells, A20 cells were cultured, and 100,000 cells per well were plated on a 96-well plate. 100 ng of LNP samples were mixed with the cells and incubated for 24 hours (n=3), and then the expression was detected using luciferase quantitative kit 24 h after administration.

[2] = Encapsulation efficiency (RIBOGREEN kit); assay type: physicochemical; settings: Luc mRNA-LNP 50:10:38.5:1.5
Method: For nanoparticle compositions including an RNA, a QUANT-IT™ RIBOGREENR®RNA assay (Invitrogen Corporation Carlsbad, Calif.) can be used to evaluate the encapsulation of an RNA by the nanoparticle composition. The samples were diluted to a concentration of approximately 5 μg/mL in a TE buffer solution (10 mM Tris-HCl, 1 mM EDTA, pH 7.5). 50 μL of the diluted samples are transferred to a polystyrene 96 well plate and either 50 μL of TE buffer or 50 μL of a 2% Triton X-100 solution is added to the wells. The plate is incubated at a temperature of 37° C. for 15 minutes. The RIBOGREENR reagent is diluted 1:100 in TE buffer and 100 μL of this solution is added to each well. The fluorescence intensity can be measured using a fluorescence plate reader (Wallac Victor 1420 Multilablel Counter; Perkin Elmer, Waltham, Mass.) at an excitation wavelength of, for example, about 480 nm and an emission wavelength of, for example, about 520 nm. The fluorescence values of the reagent blank are subtracted from that of each of the samples and the percentage of free RNA is determined by dividing the fluorescence intensity of the intact sample (without addition of Triton X-100) by the fluorescence value of the disrupted sample (caused by the addition of Triton X-100).
Encapsulation efficiency detection method: LNP content and encapsulation efficiency detection were carried out according to the RIBOGREEN kit.

Encapsulation Efficiency (EE, %) ([2]; phospholipid DAPC)	Encapsulation Efficiency (EE, %) ([2]; phospholipid DMPE)	Encapsulation Efficiency (EE, %) ([2]; phospholipid DOPE)	Encapsulation Efficiency (EE, %) ([2]; phospholipid DPPC)	Encapsulation Efficiency (EE, %) ([2]; phospholipid DSPC)	Encapsulation Efficiency (EE, %) ([2]; phospholipid DSPE)	Encapsulation Efficiency (EE, %) ([2]; phospholipid DPPE)	SMILES	HepG2 cell, in vitro expression ([1]; phospholipid DAPC)	HepG2 cell, in vitro expression ([1]; phospholipid DMPE)	HepG2 cell, in vitro expression ([1]; phospholipid DOPE)	HepG2 cell, in vitro expression ([1]; phospholipid DPPC)	HepG2 cell, in vitro expression ([1]; phospholipid DPPE)	HepG2 cell, in vitro expression ([1]; phospholipid DSPC)	HepG2 cell, in vitro expression ([1]; phospholipid DSPE)
86.4%	86.2%	87.5%	83.4%	76.0%	81.0%		CCCCCCCCC(CCCCCCCC)OC(=O)CCCCCCCN(CCO)CCCCCCCC(=O)OCCc1ccc(CCCC)cc1 [SW-II-118]	6674	17608.5	17838.5	31083	86	11247.5	3053
84.3%	86.2%	90.9%	84.9%	85.3%		64.7%	CCCCCCCCC(CCCCCCCC)OC(=O)CCCCCCCN(CCO)CCCCCCCC(=O)OCCc1ccc(CCCCCC)cc1 [SW-II-120]	4555.5	31448.5	83649.5	24199.5	57343	13068	2482
76.6%	70.9%	81.5%	86.7%	86.0%	68.5%	84.0%	CCCCCCCCC(CCCCCCCC)OC(=O)CCCCCCCN(CCO)CCCCCCCC(=O)OCCc1ccc(CCCCCCC)cc1 [SW-II-121]	3110	16466	42994.5	16064	25349.5	7932	1211.5
